Experimental data as given in PMC5201116, “Bioactive Flavonoids and Catechols as Hif1 and Nrf2 Protein Stabilizers - Implications for Parkinson’s Disease” (Aging and Disease, 2016).
Read-outs that look alike come from different tables or passages of the source.

Experiments:
[1] = test system: HIF1 ODD-luc reporter (SH-SY5Y cell line); test: HIF1 ODD-luc reporter assay; assay type: cell-based; settings: for ODD-luc fold activation / fold induction at 10 µM: at 10 µM, 3 h incubation; for fold induction at 10 µM: Homo sapiens, SH-SY5Y, 3 h, read-out: ODD-luc fold activation
Protocol: (§1) SH-SY5Y cell lines stably expressing HIF1 ODD-luc or Neh2-luc reporters were grown in the DMEM/F12 supplemented with GlutaMAX (Thermo Fisher Scientific) containing 10% FBS, 100 U/ml penicillin, and 100 μg/ml streptomycin and plated into 384-well white flat-bottom plates at 7,000 cell/well in 30 µl serum and incubated overnight at 37°C, 5% CO2. The next day compounds were added to a final concentration of 10 µM and the plates were incubated for 3 hours at 37°C. Reporter activation after 3 h incubation with the studied compound was compared to that for ciclopirox (HIF1 ODD-luc reporter) or TBHQ (Neh2-luc reporter), taken as 100%. Luciferase reporter activity was measured with a SteadyGlo reagent from Promega providing stable reading for 1 h.
(§2) Cells were plated at the density of 25,000 cell per well using a WellMate multichannel dispenser from Matrix (Thermo Fisher Scientific, Waltham, MA) and grown overnight on DMEM/F12+GlutaMAX (100 µl per well). Then an inhibitor was added, and the plates were incubated for a fixed time interval; the medium was removed, cells lysed, and luciferase activity was measured on a SpectraMax M5e platereader (Molecular Devices, Sunnyvale, CA) with BrightGlo™ reagent (Promega, Madison, WI). The reporter activation was normalized to the background luminescence. The effect of 0.5 mM N-acetylcysteine (NAC) was studied by simultaneous addition of 5 µL of 10 mM stock of NAC in water and 2 µL of 50x stock solutions of a flavonoid in DMSO.

[2] = Iron binding constant, calcein displacement assay; assay type: physicochemical; settings: for Iron complex Diss. Const: calcein displacement
Source text: Calcein displacement assay in the presence of varied concentrations of flavonoids and catechols has been used. Calcein release from its complex with iron was monitored by fluorescence as described in [26].

[3] = set-up: method as in PMID 17112238; settings: cited from earlier work
[4] = test system: Neh2-luc reporter (SH-SY5Y cell line); test: Neh2-luc reporter assay; assay type: cell-based; settings: for Neh2-luc fold activation: at 10 µM, 3 h incubation; for EC50: Neh2-luc
Protocol: as §1, §2

[5] = test system: HRE-luciferase reporter (HT22 hippocampal cell line); test: HRE-luc reporter assay; assay type: cell-based; settings: for fold induction at 10 µM: Mus musculus, HT-22, 3 h, read-out: HRE-luc fold activation; for fold induction at 10 µM / HRE-luc fold activation: at 10 µM
Source text: A promoter-reporter construct that contained 68 bp of a known hypoxia and HIF-1 regulated gene, enolase, containing a wild type hypoxia response element (HRE, 5’-RCTGT-3’), is a widely used approach for screening for HIF activators of different mechanism of action. A cell-based assay with HRE-luciferase reporter system is based on transfected immortalized hippocampal cell line (HT22) and allows screening for a broad spectrum of compounds that include: activators of HIF transcription; activators of HIF binding to HRE; and effectors of HIF protein stability (PHD inhibitors, pVHL & proteasome inhibitors). The assay was performed the same way as for HIF ODD-luc reporter except the cells were plated at the density of 10,000 cell per well and incubated overnight.

| Iron complex Diss. Const [2] | SMILES | ODD-luc fold activation [1] | Neh2-luc fold activation [4] | fold induction at 10 µM [5] | HRE-luc fold activation [5] | also measured |
| --- | --- | --- | --- | --- | --- | --- |
| 2.5 ± 0.3 µM | O=c1c(O)c(-c2ccc(O)cc2O)oc2cc(O)cc(O)c12 [compound 12, Morin] | Inactive | Inactive | 1.3 ± 0.2 | – | EHOMO [3]: -8.81 eV; Neh2-luc fold activation ([4]; listed as morin): completely inactive |
| Inactive | O=c1cc(-c2ccc(O)cc2)oc2cc(O)cc(O)c12 [compound 16, Apigenin] | Inactive | Inactive | 1.3 ± 0.15 | – | EHOMO [3]: -9.15 eV |
| 1.5 ± 0.3 µM | O=C(NO)c1ccc(O)c(O)c1 [compound 33, 3,4-Dihydroxy-benzohydroxamate] | – | Inactive | – | – | ODD-luc: concentration above which active [1]: Active above 100 µM; ODD-luc: concentration above which active ([1]; listed as Didox): above 100 µM; EC50 [4]: 100 µM; HRE-luc: concentration above which active [5]: Active above 100 µM |
| 0.7 ± 0.1 µM | O=c1cc(-c2ccccc2)oc2c(O)c(O)ccc12 [compound 20, 7,8-Dihydroxyflavone] | – | Inactive | 3.6 ± 0.4 | – | fold induction at 10 µM [1]: 1.5 ± 0.2; iron dissociation constant [2]: ca. 700 nM; EHOMO [3]: -9.23 eV |
| Inactive | O=c1c(-c2ccc(O)cc2)coc2cc(O)ccc12 [compound 26, Daidzein] | Inactive | Inactive | – | Inactive | ODD-luc fold activation ([1]; listed as daidzein): did not cause any activation effect; Neh2-luc fold activation ([4]; listed as daidzein): not |
| 0.05 ± 0.01 µM | O=C(O)CN(CC(=O)O)Cc1cc2c(cc1O)Oc1cc(O)c(CN(CC(=O)O)CC(=O)O)cc1C21OC(=O)c2ccccc21 [compound 34, Calcein, reference compound] | – | Inactive | 1.7 ± 0.2 | – | fold induction at 10 µM [1]: 2 ± 0.25 |
| 5.0 ± 0.5 µM | COc1ccc2c(=O)c(O)c(-c3ccccc3)oc2c1 [compound 5, 3-Hydroxy-7-methoxy-] | Inactive | Inactive | – | Inactive | Iron complex Diss. Const ([2]; listed as 3-hydroxy-7-methoxyflavone): ca. 5 µM |
| 2.5 ± 0.3 µM | N[C@H](Cc1ccc(O)c(O)c1)C(=O)O [compound 30, 3,4-Dihydroxy-D-phenylalanine] | Inactive | Inactive | – | Inactive | EC50 ([4]; Homo sapiens, SH-SY5Y): 20 µM |
| Inactive | COc1cc(C)c2c(=O)cc(-c3ccccc3)oc2c1 [compound 21, Methoxyvone] | Inactive | Inactive | 3.2 ± 0.35 | – | – |

The remaining lines, values behind:

| SMILES | Iron complex Diss. Const [2] | ODD-luc fold activation [1] | Neh2-luc fold activation [4] | fold induction at 10 µM [5] | HRE-luc fold activation [5] | also measured |
| --- | --- | --- | --- | --- | --- | --- |
| COc1ccc2c(=O)c(OC)c(-c3ccccc3)oc2c1 [compound 6, 3,7-Dimethoxy-] | – | Inactive | Inactive | – | inactive | – |
| COc1ccc(-c2oc3ccccc3c(=O)c2O)cc1 [compound 4, 3-Hydroxy-4'-methoxy-] | 4.0 ± 0.4 µM | – | – | – | – | – |
| O=c1c(-c2ccc(O)cc2)coc2c(O)c(O)ccc12 [compound 25, 8-Hydroxy-daidzein] | 1.5 ± 0.3 µM | Inactive | Inactive | – | Inactive | – |
| O=c1c(-c2ccc(O)cc2)coc2cc(O)cc(O)c12 [compound 23, Genistein] | Inactive | Inactive | Inactive | 1.5 ± 0.2 | – | – |
| O=c1c(-c2ccc(O)cc2)coc2cc(O)cc(O)c12 [compound 24, 5-Hydroxy-daidzein] | – | – | – | – | Inactive | – |
| CC(C)Oc1ccc2c(=O)c(-c3ccccc3)coc2c1 [compound 22, Ipriflavone] | Inactive | Inactive | Inactive | 2.5 ± 0.3 | – | – |
